Square brackets hold non-standard residues; d marks the D form. Peptide text beside a SMILES is read from it. Nle = CCCC[C@H](N)C(=O)O
Assays:
calpain = assay: Calpain inhibitor test: Fura-2 and EYFP fluorescence in primary cultures of cerebellum expressing F2C, potassium stimulation; format: cell-based, rat; details: ALLN 100 μM, ALLM 50 μM; for percentage of F535 EYFP maximum fluorescence change to Fura-2 maximum ratio change versus control free of calpain inhibitors: p>0.28; for percentage of F535 EYFP maximum fluorescence change to Fura-2 maximum ratio change (mean ± S.E.M.): preincubation 1 hr, potassium stimulation, n=10 cells
Procedure: (§1) The primary culture of cerebellum was incubated at 37° C., in 5% CO2 and 95% O2 atmosphere. The cells on a cover glass slip were infected with Sindbis-F2C 24 hrs before the incubation with Fura-2/AM (Molecular Probes, Eugene, Oregon, U.S.A.). This glass slip was transferred to a new dish filled with an external solution (ACSF, artificial cerebro-spinal fluid; 155 mM NaCl, 2.5 mM CaCl2, 1 mM MgCl2, 10 mM, HEPES, 17 mM glucose and 5 mM KOH and adjusted to pH 7.4). Fura-2/AM was added to a final concentration of 20 μM, and further incubated for 30 min at 37° C. Fura-2/AM (10 mM) stock was dissolved in DMSO. Cerebella cultures were transferred under the upright microscope equipped with a cooled CCD camera, and the image was prepared (ORCA-ER on Aquacosmos, Hamamatsu Photonics, Hamamatsu, Japan). For Fura-2 imaging, excitation light at wavelength 340 nm (10 nm band widths, 100% transmission) and excitation light at wavelength 380 nm (10 nm band widths, 100% transmission) were alternately applied, and fluorescence was captured at 510 nm and at longer wavelength. When F2C fluorescence was measured simultaneously, excitation light at 440 nm (10 nm band widths, 100% transmission) was applied and the fluorescence at a wavelength longer than 510 nm was captured. This fluorescence corresponds to EYFP. When FRET was measured from brain slice preparations or from cerebella cultures, neurons were excited at 440 nm (20 nm band width 60% transmission, XF1071 Omega Optical) with a dichroic mirror at 435 ram (XF2034 Omega Optical) and the fluorescence was monitored through 480 nm (30 nm bandwidth 75% transmission, XF3075 Omega Optical) for ECFP and 535 nm (25 nm bandwidth 70% transmission, XF3079 Omega Optical+50% ND filter) for EYFP.
To test the inhibition of calpain activities, calpain inhibitor-1 (ALLN, Calbiochem) and calpain inhibitor-2 (ALLM, Calbiochem) were adopted and Fura-2 fluorescence and EYFP fluorescence measurements were similarly conducted. The primary cultures of cerebellum were preincubated in ACSF containing ALLN (100 μM in DMSO), ALLM (50 μM in DMSO) or a combination of both for 1 hr. The same concentration of DMSO was added to ACSF as a control.

[1] = tested on: cerebellar Purkinje cells; assay: FRET fluorescence ratio (ECFP/EYFP) in cultured Purkinje cells expressing the indicator, KCl stimulation; format: cell-based, rat
Procedure: Purkinje cells were cultured in the same manner as reported previously (Weber, A. et al., Brain Res., 311, 119-130, 1984/Hirano, T. et al., Proc. Natl. Acad. Sci. U.S.A., 83, 1945-1949, 1986). In short, cerebella were dissected from Wistar rat fetus (about 20 days of fetal stage), and meninges were removed. The cerebella were incubated at 20° C. for 4 min in 1% trypsin (Invitrogen, California, U.S.A.)/0.05% DNase (Sigma, Missouri, U.S.A.) solution containing 137 mM NaCl, 5 mM KCl, 7 mM Na2PO4, and 25 mM HEPES (pH 7.2). After washing with Ca^2+- and Mg^2+-free Hanks' balanced salt solution (Invitrogen) three times, the tissue was dispersed by trituration with a fire polished Pasteur pipette in Ca^2+-free Hanks' balanced salt solution containing 0.05% DNase and 12 mM MgSO4. The cell suspension was centrifuged at 180×g at room temperature and the pelletized cells were resuspended at a concentration of 10^6 cells per 1 ml in a defined medium, which facilitates the survival of neurons (Weber, A. et al., Brain Res., 311, 119-130, 1984/Fischer, G. et al., Neurosci Lett, 28, 325-329, 1982). 2 ml of this cell suspension was plated on a Petri dish containing several heat-sterilized glass coverslips coated with 0.01% poly-L-lysin (Sigma). This cell culture was incubated at 37° C. in 5% CO2. The cells on the glass coverslips were used for infection with Sindbis virus. […]
(§2) The primary culture of cerebellum was incubated at 37° C., in 5% CO2 and 95% O2 atmosphere. […] For Fura-2 imaging, excitation light at wavelength 340 nm (10 nm band widths, 100% transmission) and excitation light at wavelength 380 nm (10 nm band widths, 100% transmission) were alternately applied, and fluorescence was captured at 510 nm and at longer wavelength. When F2C fluorescence was measured simultaneously, excitation light at 440 nm (10 nm band widths, 100% transmission) was applied and the fluorescence at a wavelength longer than 510 nm was captured. This fluorescence corresponds to EYFP. […]

[2] = tested on: cochlear nucleus neurons in brain slices; assay: FRET fluorescence ratio (ECFP/EYFP) in cochlear nucleus neurons of brain-stem slices after in vivo Sindbis injection, KCl stimulation; format: cell-based, rat
Procedure: Young Wistar rats (9-10 days old) were anesthetized with chloral hydrate (0.3 mg/g body weight). Then, the head of rat was fixed on a stereotaxis stage with a pair of ear bars and a nose clamp (SR-5N, Narishige, Tokyo, Japan). The head skin was sagittally incised and a small hole was made through the skull to expose the cerebellum. A micropipette was inserted through cerebellum, and a suspension of Sindbis virus encoding F2C protein (Sindbis-F2C) was injected (0.5-1 μl) into the brainstem by applying a mild positive pressure to the micropipette with the mouth. The incised part of the skin was then sutured and the rat was returned to the mother after recovery from anesthesia. […]
as §2

μ-calpain = target: T1, μ-calpain (Homo sapiens, UniProt P07384); assay: Western blotting for cleavage of the fusion protein by calpain; format: biochemical; details: incubated with purified μ-calpain in Ca-EGTA buffer (data not shown)
T1 construct: purchased Calbiochem
T1 sequence (P07384 1-714): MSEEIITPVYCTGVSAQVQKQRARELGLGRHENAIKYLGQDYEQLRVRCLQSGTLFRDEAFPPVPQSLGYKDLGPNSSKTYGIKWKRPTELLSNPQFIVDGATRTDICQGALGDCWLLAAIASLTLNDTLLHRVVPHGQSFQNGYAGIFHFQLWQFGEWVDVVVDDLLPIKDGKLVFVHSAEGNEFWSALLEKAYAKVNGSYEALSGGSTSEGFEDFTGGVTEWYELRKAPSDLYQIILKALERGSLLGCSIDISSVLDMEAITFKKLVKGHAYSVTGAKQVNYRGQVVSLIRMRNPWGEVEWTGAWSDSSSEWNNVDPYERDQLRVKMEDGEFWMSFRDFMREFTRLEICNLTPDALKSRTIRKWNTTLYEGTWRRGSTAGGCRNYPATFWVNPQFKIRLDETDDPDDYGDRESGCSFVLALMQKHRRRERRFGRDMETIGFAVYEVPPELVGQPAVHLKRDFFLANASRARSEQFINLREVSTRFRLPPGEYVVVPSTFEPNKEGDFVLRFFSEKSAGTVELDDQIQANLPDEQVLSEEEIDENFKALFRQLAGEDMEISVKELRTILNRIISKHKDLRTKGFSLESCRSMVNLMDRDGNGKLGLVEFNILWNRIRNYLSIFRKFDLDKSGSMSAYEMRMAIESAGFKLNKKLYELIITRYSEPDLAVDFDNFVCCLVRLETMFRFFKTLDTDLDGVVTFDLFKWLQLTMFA
T1 sequence (P04632 1-268 partner): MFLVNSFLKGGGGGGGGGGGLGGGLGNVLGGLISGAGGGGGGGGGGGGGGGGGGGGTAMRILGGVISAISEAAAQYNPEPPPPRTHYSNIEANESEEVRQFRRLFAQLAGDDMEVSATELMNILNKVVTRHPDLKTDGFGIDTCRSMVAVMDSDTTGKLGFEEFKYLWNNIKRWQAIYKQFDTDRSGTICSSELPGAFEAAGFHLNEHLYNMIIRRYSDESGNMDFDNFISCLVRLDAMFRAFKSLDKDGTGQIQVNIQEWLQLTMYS
Procedure: To obtain cell lysate, cells were pelletized and homogenized in EGTA buffer (10 mM EGTA-Na, 10 mM HEPES-K, 150 mM NaCl) or Ca-EGTA buffer (10 mM CaCl2, 10 mM EGTA-Na, 10 mM HEPES-K, 150 mM NaCl). The Ca^2+ concentration was finally adjusted to 20 μM. The cell lysates contained the protease inhibitor cocktail (Nacalai Tesque). The cell lysates were incubated at 30° C. for 30 min or 60 min. In some experiments, cell lysates were incubated with a purified μ-calpain (Calpain I, Calbiochem, California, U.S.A.) at 30° C. for 30 min or 60 min. These cell lysates were centrifuged at 20,000×g for 20 min and the supernatants were fractionated. The supernatants were loaded onto 10% SDS-PAGE gels. Western blotting was carried out according to the method of Towbin et al. (Towbin, H. et al., Proc. Natl. Acad. Sci. U.S.A., 76, 4350-4354, 1979), using mouse anti-GFP antibody for detecting F2C cleavage (dilution rate 1:1000, MBL, Nagoya, Japan) and anti-PKC α antibody (dilution rate 1:500, Upstate, N.Y., U.S.A.) to confirm calpain activity.

Ca^2+ = assay: Simultaneous Fura-2 and F2C fluorescence measurement, Ca2+ titration and kinetics; format: cell-based, rat
Procedure: as §1
Rmax=2.38 and Rmin=0.58 were obtained by measurement from the Purkinje cell membrane loaded with Fura-2 perforated with 1 μM ionomycin, after equilibration with normal ACSF ([…]) for Rmax and equilibration with 0 mM CaCl2, 10 mM EGTA ACSF for Rmin. […]

fragmented protein signal in Western blot (cleavage by calpain) (μ-calpain)	Kd (Ca^2+; titration of F2C, pH 7.4, read-out: apparent Kd value for Ca^2+) [nM]	Compound	percentage of F535 EYFP maximum fluorescence change to Fura-2 maximum ratio change versus control free of calpain inhibitors (calpain)	percentage of F535 EYFP maximum fluorescence change to Fura-2 maximum ratio change (mean ± S.E.M.) (calpain) [%]	ECFP/EYFP fluorescence ratio change ([1]; Purkinje cells 14DIV exposed to 7.5 mM KCl (basal 5 mM)) [fold]	ECFP/EYFP fluorescence ratio change ([1]; Purkinje cells 14DIV exposed to 10 mM KCl (basal 5 mM)) [fold]	ECFP/EYFP fluorescence ratio change ([1]; Purkinje cells 14DIV exposed to 15 mM KCl (basal 5 mM)) [fold]	time over which reversible changes of the ECFP/EYFP fluorescence ratio were observed ([2]; 10 mM KCl stimulation, cochlear nucleus neurons, FIG. 9)	change of FRET fluorescence ratio on exposure to high KCl solution ([2]; brainstem slices, 15 mM KCl applied 3 times)	speed of Ca^2+ response (20-80% rise time of F535) compared with Fura-2 (F340/F380) (Ca^2+; n=240 cells, various CaCl2 and KCl conditions)	Hill coefficient (Ca^2+; titration of F2C, pH 7.4)
		CCCC[C@@H](C=O)NC(=O)[C@H](CC(C)C)NC(=O)[C@H](CC(C)C)NC(C)=O [ALLN] (Ac-Leu-Leu-[Nle]-aldehyde)	not different	37.1 ± 2.1							
not detected	150	F2C: Fusion protein (SEQ ID NO:6): GAP43 palmitoylation signal, ECFP, two α-spectrin calpain sensitive sequences, EYFP			1.03	1.39	1.78	at least 200 min	changed reversibly	almost the same speed	4
		CSCC[C@@H](C=O)NC(=O)[C@H](CC(C)C)NC(=O)[C@H](CC(C)C)NC(C)=O [ALLM] (Ac-Leu-Leu-Met-aldehyde)	not different	35.9 ± 1.4							
